The experiment concerns the target EGFR (UniProt P00533).

For 82 compounds, IC50 results are on record in the Kinase Knowledgebase extract (Sharma et al. 2016).

Values after ≈ are worked out from the molar mass of the structure shown. Some results are limits rather than exact numbers.

Chain of EGFR (P00533 whole entry, looked up): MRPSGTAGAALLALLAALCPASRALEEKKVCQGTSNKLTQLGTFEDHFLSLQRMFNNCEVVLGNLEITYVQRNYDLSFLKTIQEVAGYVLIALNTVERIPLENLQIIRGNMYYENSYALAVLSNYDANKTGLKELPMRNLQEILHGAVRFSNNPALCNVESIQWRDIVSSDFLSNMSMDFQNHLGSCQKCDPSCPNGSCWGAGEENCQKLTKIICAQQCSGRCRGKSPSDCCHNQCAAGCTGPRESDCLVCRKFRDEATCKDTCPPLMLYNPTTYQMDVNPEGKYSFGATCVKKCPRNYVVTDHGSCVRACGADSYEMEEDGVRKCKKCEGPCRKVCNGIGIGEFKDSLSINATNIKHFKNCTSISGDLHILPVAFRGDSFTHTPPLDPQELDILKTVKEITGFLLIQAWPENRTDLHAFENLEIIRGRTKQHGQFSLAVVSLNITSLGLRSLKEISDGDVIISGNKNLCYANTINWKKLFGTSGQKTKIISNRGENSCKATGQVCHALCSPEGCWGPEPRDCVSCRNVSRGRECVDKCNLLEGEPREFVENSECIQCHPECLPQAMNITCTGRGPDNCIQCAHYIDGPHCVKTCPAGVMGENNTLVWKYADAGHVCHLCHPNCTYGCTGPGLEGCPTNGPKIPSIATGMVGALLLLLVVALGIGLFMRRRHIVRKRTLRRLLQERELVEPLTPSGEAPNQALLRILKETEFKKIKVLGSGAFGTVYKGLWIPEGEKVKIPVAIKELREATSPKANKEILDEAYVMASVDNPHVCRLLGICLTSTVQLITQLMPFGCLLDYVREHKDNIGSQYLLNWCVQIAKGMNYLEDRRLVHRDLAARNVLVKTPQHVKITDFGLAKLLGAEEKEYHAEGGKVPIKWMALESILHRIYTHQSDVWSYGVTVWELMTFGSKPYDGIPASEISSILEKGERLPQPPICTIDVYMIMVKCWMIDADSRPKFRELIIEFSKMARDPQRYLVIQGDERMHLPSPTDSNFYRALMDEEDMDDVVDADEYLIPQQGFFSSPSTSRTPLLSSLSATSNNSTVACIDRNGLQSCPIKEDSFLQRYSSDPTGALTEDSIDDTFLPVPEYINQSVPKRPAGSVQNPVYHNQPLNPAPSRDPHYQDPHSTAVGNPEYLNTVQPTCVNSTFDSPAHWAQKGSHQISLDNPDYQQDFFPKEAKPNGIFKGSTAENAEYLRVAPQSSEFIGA

Usually IC50 stands for the midpoint of a concentration-inhibition curve. Low values mean higher potency, high ones lower potency. Take `COc1cc(OC)cc(-c2nnc(Nc3ncnc(Nc4cc(OC)c(OC)c(OC)c4)n3)[nH]2)c1`: the IC50 was over 4.5 µg/mL.

As for `Clc1cccc(Nc2ncnc(-c3cccs3)n2)c1`, the IC50 is over 4.5 µg/mL.

The compound `COc1cc(Nc2ncnc(-c3ccc(F)cc3)n2)cc(OC)c1OC` registered an IC50 of over 4.5 µg/mL.

As for `COc1ccc(Nc2ncnc(Nc3ccc(F)c(F)c3)n2)cc1OC`, the IC50 was 0.4 to 2.4 µg/mL (≈ 1.11 to 6.68 µM).

For the compound `COc1cc(Nc2ncnc(-n3c(NCc4ccc(F)cc4Cl)nc4ccccc43)n2)cc(OC)c1OC`, the half-inhibitory concentration (IC50) was in the range of 3.5 to 4.5 µg/mL (≈ 6.53 to 8.4 µM).

Consider `COc1cc(Nc2ncnc(-c3cccnc3NC(C)C)n2)cc(OC)c1OC`, for which the IC50 was over 4.5 µg/mL.

`COC(=O)c1ccc(-c2cc(Nc3ncnc(Nc4cc(Cl)cc(Cl)c4)n3)[nH]n2)cc1` registered an IC50 of over 4.5 µg/mL.

Consider `O=C(O)Cc1cccc(Nc2ncnc(-n3c(NCc4ccccc4)nc4ccccc43)n2)c1`, for which the IC50 is under 0.4 µg/mL.

As for `Nc1nc2ccccc2n1-c1ncnc(Cl)n1`, the IC50 was over 4.5 µg/mL.

`Fc1ccc(Nc2ncnc(-n3cccc3)n2)cc1` came in with an IC50 of over 4.5 µg/mL.

Take `COc1cc(Nc2ncnc(-n3c(NCc4ccc(Cl)cc4C)nc4ccccc43)n2)cc(OC)c1OC`: the IC50 lay within 3.5 to 4.5 µg/mL (≈ 6.58 to 8.46 µM).

`O=c1[nH]c2ccccc2n1-c1ncnc(Nc2cccc([N+](=O)[O-])c2)n1`: the IC50 was over 4.5 µg/mL.

The compound `COc1cc(Nc2ncnc(N(CC(=O)OC(C)(C)C)c3ccc(Cl)cc3)n2)cc(OC)c1OC` came in with an IC50 of 0.4 to 2.4 µg/mL (≈ 0.797 to 4.78 µM).

For the compound `NC(=O)c1cccc(Nc2ncnc(Nc3cc(-c4ccco4)n[nH]3)n2)c1`, the IC50 was under 0.4 µg/mL.

Take `COc1cc(Nc2ncnc(-n3c(=O)oc4ccccc43)n2)cc(OC)c1OC`: the IC50 was in the range of 0.4 to 2.4 µg/mL (≈ 1.01 to 6.07 µM).

`COc1cc(Nc2ncnc(Nc3ccc4c(c3)CCC4)n2)cc(OC)c1OC` had an IC50 of 0.4 to 2.4 µg/mL (≈ 1.02 to 6.1 µM).

Compound `COc1cc(Nc2ncnc(-n3c(N)nc4cc(C(F)(F)F)ccc43)n2)cc(OC)c1OC.COc1cc(Nc2ncnc(-n3c(N)nc4ccc(C(F)(F)F)cc43)n2)cc(OC)c1OC` registered an IC50 of over 4.5 µg/mL.

On to `COc1cc(Nc2ncnc(-c3ccnc(NCCCO)c3)n2)cc(OC)c1OC`, for which the concentration for half-maximal inhibition (IC50) is over 4.5 µg/mL.

In turn, `O=c1[nH]c2ccccc2n1-c1ncnc(Nc2cccc3cccnc23)n1` registered an IC50 of over 4.5 µg/mL.

Turning to `COc1cc(Nc2ncnc(Nc3cc(C)[nH]n3)n2)cc(OC)c1OC`, the IC50 was in the range of 3.5 to 4.5 µg/mL (≈ 9.79 to 12.6 µM).

For `COc1cc(Nc2ncnc(-c3cccnc3Nc3cccc(C(N)=O)c3)n2)cc(OC)c1OC`, the IC50 is over 4.5 µg/mL.

Compound `COc1ccccc1Nc1nc2ccccc2n1-c1ncnc(Nc2cc(OC)c(OC)c(OC)c2)n1` yielded an IC50 of over 4.5 µg/mL.

Consider `COc1cc(Nc2ncnc(-n3cc(OC(C)=O)c4ccccc43)n2)cc(OC)c1OC`, for which the IC50 is over 4.5 µg/mL.

`CN(c1ccc(F)c(Cl)c1)c1ncnc(Nc2cccc(Br)c2)n1` gave a half-inhibitory concentration (IC50) of over 4.5 µg/mL.

`COC(=O)c1ccc(-c2cc(Nc3ncnc(NCCN4CCNC4=O)n3)[nH]n2)cc1` showed an IC50 of over 4.5 µg/mL.

As to `COc1cc(Nc2ncnc(-c3cccnc3Cl)n2)cc(OC)c1OCCN1CCOCC1`, the IC50 is over 4.5 µg/mL.

`COc1cc(Nc2ncnc(N(C/C=C/c3ccccc3)c3ccc(Cl)cc3)n2)cc(OC)c1OC` showed an IC50 of under 0.4 µg/mL.

`CC(C)(C)OC(=O)NCc1cccc(Nc2ncnc(Nc3cc(-c4ccco4)n[nH]3)n2)c1`: the half-inhibitory concentration (IC50) fell in the range of 0.4 to 2.4 µg/mL (≈ 0.892 to 5.35 µM).

As to `O=C(Nc1ccc(Nc2ncnc(-n3c(=O)[nH]c4ccccc43)n2)cc1)O[C@@H]1CCOC1`, the IC50 was over 4.5 µg/mL.

`COc1cc(Nc2ncnc(-c3cccs3)n2)cc(OC)c1OC` yielded an IC50 of over 4.5 µg/mL.

Compound `COc1cc(Nc2ncnc(Nc3nnc(-c4ccccc4)[nH]3)n2)cc(OC)c1OC` yielded an IC50 of over 4.5 µg/mL.

Turning to `COc1ccc(Nc2ncnc(Nc3ccc(OCc4ccccc4)cc3)n2)cc1`, the IC50 is over 4.5 µg/mL.

`CC(C)(C)c1cc(Nc2ncnc(Nc3ccc(CC(=O)O)cc3)n2)[nH]n1` came in with an IC50 of 0.4 to 2.4 µg/mL (≈ 1.09 to 6.53 µM).

Regarding `COc1cccc(CCNc2ncnc(Nc3ccc4c(cnn4Cc4ccccc4)c3)n2)c1OC`, the IC50 was over 4.5 µg/mL.

The compound `COc1cc(Nc2ncnc(-c3cccc(Cl)c3)n2)cc(OC)c1OC` gave a half-maximal inhibitory concentration (IC50) of over 4.5 µg/mL.

As to `COc1cc(Nc2ncnc(-n3c(N)nc4ccccc43)n2)ccc1OCCN1CCOCC1`, the IC50 was over 4.5 µg/mL.

Turning to `COc1cc(Nc2ncnc(-n3ccnc3NCc3ccccc3)n2)cc(OC)c1OC`, the 50% inhibitory concentration (IC50) was over 4.5 µg/mL.

For the compound `COc1cc(Nc2ncnc(-c3cccnc3Nc3cccc(C(C)=O)c3)n2)cc(OC)c1OC`, the IC50 was over 4.5 µg/mL.

The compound `COc1cc(Nc2ncnc(-c3cccnc3N)n2)cc(OC)c1OC` returned an IC50 of over 4.5 µg/mL.

As for `COc1cc(Nc2ncnc(N3CCN(C(=O)OC(C)(C)C)CC3)n2)cc(OC)c1OC`, the IC50 is over 4.5 µg/mL.

Take `COC(=O)c1sccc1Nc1ncnc(Nc2cc(OC)c(OC)c(OC)c2)n1`: the IC50 was over 4.5 µg/mL.

The compound `COc1ccc([C@@H](C)Nc2nc3ccccc3n2-c2ncnc(Nc3cc(OC)c(OC)c(OC)c3)n2)cc1` had a half-maximal inhibitory concentration (IC50) of over 4.5 µg/mL.

The compound `Nc1ncnc(Nc2cccc(Cl)c2)n1` registered an IC50 of over 4.5 µg/mL.

As for `Nc1ncnc(Nc2nc(-c3ccccc3)cs2)n1`, the concentration for half-maximal inhibition (IC50) was over 4.5 µg/mL.

As to `COc1cc(Nc2ncnc(-c3cccnc3NCc3ccccc3F)n2)cc(OC)c1OC`, the IC50 is over 4.5 µg/mL.

Compound `COC(=O)Cc1cccc(Nc2ncnc(Nc3ccc(C)c(O)c3)n2)c1` came in with an IC50 of 0.4 to 2.4 µg/mL (≈ 1.09 to 6.57 µM).

In turn, `O=C(O)Cc1cccc(Nc2ncnc(Nc3cccc(Br)c3)n2)c1` registered an IC50 of under 0.4 µg/mL.

`COc1cc(Nc2ncnc(-n3c(NCc4ccccc4F)nc4ccccc43)n2)cc(OC)c1OC` displayed an IC50 of over 4.5 µg/mL.

On to `COc1ccccc1Nc1ncnc(-n2cccc2)n1`, for which the half-inhibitory concentration (IC50) was over 4.5 µg/mL.

`COc1cc(Nc2ncnc(Nc3ccc(N(C)C(C)=O)cc3)n2)cc(OC)c1OC` yielded an IC50 of over 4.5 µg/mL.

With `N#Cc1ccc(Nc2ncnc(-n3c(=O)[nH]c4ccccc43)n2)cc1`, the IC50 is over 4.5 µg/mL.

Take `CN(c1cccc(Cl)c1)c1ncnc(Nc2cc(C(C)(C)C)on2)n1`: the 50% inhibitory concentration (IC50) is over 4.5 µg/mL.

In turn, `COc1cc(Nc2ncnc(-c3cccnc3NCc3cccc4ccccc34)n2)cc(OC)c1OC` registered a half-maximal inhibitory concentration (IC50) of over 4.5 µg/mL.

As for `COc1ccc(Oc2ncnc(Nc3cc(OC)c(OC)c(OC)c3)n2)cc1`, the IC50 is 2.4 to 3.5 µg/mL (≈ 6.24 to 9.11 µM).

In the case of `COc1cc(Nc2ncnc(Nc3cccc(OCc4ccccc4)c3)n2)cc(OC)c1OC`, the IC50 was over 4.5 µg/mL.

Compound `COc1cc(Nc2ncnc(-n3c(NCc4ccccn4)nc4ccccc43)n2)cc(OC)c1OCCN1CCOCC1` had an IC50 of over 4.5 µg/mL.

`COc1cc(Nc2ncnc(N(C)c3cccc(Cl)c3)n2)cc2ccccc12` registered an IC50 of under 0.4 µg/mL.

Compound `Nc1nc2ccccc2n1-c1ncnc(Nc2cccc(CC(=O)O)c2)n1` registered an IC50 of over 4.5 µg/mL.

`O=c1[nH]c2ccccc2n1-c1ncnc(Nc2ccccc2Cl)n1` showed an IC50 of 0.4 to 2.4 µg/mL (≈ 1.18 to 7.08 µM).

In turn, `N#CCc1ccc(Nc2ncnc(Nc3ccc4c(cnn4Cc4ccccc4)c3)n2)cc1` had an IC50 of under 0.4 µg/mL.

`COc1cc(Nc2ncnc(N3CCCC3)n2)cc(OC)c1OC`: the IC50 is over 4.5 µg/mL.

Compound `Clc1cccc(Nc2ncnc(Nc3ccc4[nH]ncc4c3)n2)c1` yielded an IC50 of under 0.4 µg/mL.

Turning to `COc1cc(Nc2ncnc(-n3c(Nc4cccc(C)c4)nc4ccccc43)n2)cc(OC)c1OC`, the half-maximal inhibitory concentration (IC50) was over 4.5 µg/mL.

`Fc1ccc(Nc2ncnc(Nc3ccc4cn[nH]c4c3)n2)cc1Cl` came in with a half-maximal inhibitory concentration (IC50) of under 0.4 µg/mL.

`COc1ccc(N(C)c2ncnc(Nc3cc(OC)c(OC)c(OC)c3)n2)cc1` registered an IC50 of 0.4 to 2.4 µg/mL (≈ 1.01 to 6.04 µM).

In turn, `NC(=O)c1ccc(Nc2ncnc(-c3ccccc3)n2)cc1` yielded a half-maximal inhibitory concentration (IC50) of over 4.5 µg/mL.

`COc1cc(Nc2ncnc(Nc3ccc(Oc4ccccc4)cc3)n2)cc(OC)c1OC` gave an IC50 of under 0.4 µg/mL.

`COC(=O)c1ccc(-c2cc(Nc3ncnc(Nc4cccc(C(N)=O)c4)n3)[nH]n2)cc1` returned an IC50 of over 4.5 µg/mL.

`CC(=O)Nc1ccc(Nc2ncnc(-c3cccs3)n2)cc1`: the IC50 was over 4.5 µg/mL.

`CCN(CC)C(=O)C1CCCN(c2ncnc(Nc3cc(OC)c(OC)c(OC)c3)n2)C1` (configuration not stated): the IC50 is over 4.5 µg/mL.

For `COc1cc(Nc2ncnc(-c3cccnc3NCc3ccccc3)n2)cc(OC)c1OC`, the 50% inhibitory concentration (IC50) was over 4.5 µg/mL.

`CC(=O)NS(=O)(=O)c1ccc(Nc2ncnc(-n3c(=O)[nH]c4ccccc43)n2)cc1` displayed an IC50 of over 4.5 µg/mL.

`CN(c1ccc2c(cnn2Cc2ccccc2)c1)c1ncnc(Nc2cccc(Cc3nnn[nH]3)c2)n1` yielded an IC50 of under 0.4 µg/mL.

As to `Cc1nccc(-c2cccc(Nc3ncnc(Nc4ccc5c(cnn5Cc5ccccc5)c4)n3)c2)n1`, the IC50 was under 0.4 µg/mL.

The compound `COc1cc(Nc2ncnc(-c3ccccc3)n2)cc(OC)c1` had an IC50 of over 4.5 µg/mL.

For the compound `Cc1cc(Br)ccc1Nc1ncnc(-n2cccc2)n1`, the IC50 was over 4.5 µg/mL.

Compound `COc1cc(Nc2ncnc(-c3cccnc3Nc3cccc(Oc4ccccc4)c3)n2)cc(OC)c1OC` returned an IC50 of over 4.5 µg/mL.

In the case of `c1ccc(Cn2ncc3cc(Nc4ncnc(NCC5CCCCC5)n4)ccc32)cc1`, the IC50 is over 4.5 µg/mL.

In turn, `COc1cc(Nc2ncnc(-n3ncc(-c4ccccc4)c3N)n2)cc(OC)c1OC` returned an IC50 of 2.4 to 3.5 µg/mL (≈ 5.72 to 8.34 µM).

Compound `COc1cc(Nc2ncnc(Nc3ccc(C(C)C)cc3)n2)cc(OC)c1OC` displayed an IC50 of over 4.5 µg/mL.

`COc1cc(Nc2ncnc(Nc3nc4ccccc4n3C)n2)cc(OC)c1OC` displayed an IC50 of over 4.5 µg/mL.

For the compound `COc1cc(Nc2ncnc(Nc3ccc4c(c3)Cc3ccccc3-4)n2)cc(OC)c1OC`, the IC50 was over 4.5 µg/mL.
